Experimental data published in PubChem BioAssay (NCI).
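GI50 is the concentration that inhibits growth by half. Definition used: TGI = concentration required for complete inhibition of growth.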

Tests used:
Test in all cases: NCI anticancer screen, dose series, 384-well format
SF-295 CNS = tested on: SF-295 CNS
CAKI-1 renal = tested on: CAKI-1 renal
CCRF-CEM leukemia = tested on: CCRF-CEM leukemia
TK-10 renal = tested on: TK-10 renal
MDA-MB-468 breast = tested on: MDA-MB-468 breast
LOX IMVI melanoma = tested on: LOX IMVI melanoma
A549 NSCLC = tested on: A549 NSCLC
EKVX NSCLC = tested on: EKVX NSCLC
HCT-116 colon = tested on: HCT-116 colon
COLO 205 colon = tested on: COLO 205 colon
HL-60(TB) leukemia = tested on: HL-60(TB) leukemia
MCF7 breast = tested on: MCF7 breast
RPMI-8226 leukemia = tested on: RPMI-8226 leukemia
PC-3 prostate = tested on: PC-3 prostate
NCI-H23 lung = tested on: NCI-H23 lung
T-47D breast = tested on: T-47D breast
HCT-15 colon = tested on: HCT-15 colon
BT-549 breast = tested on: BT-549 breast
NCI-H322M lung = tested on: NCI-H322M lung
SNB-19 CNS = tested on: SNB-19 CNS
M14 melanoma = tested on: M14 melanoma
NCI/ADR-RES ovarian = tested on: NCI/ADR-RES ovarian
IGROV1 ovarian = tested on: IGROV1 ovarian
SF-268 CNS = tested on: SF-268 CNS
OVCAR-5 ovarian = tested on: OVCAR-5 ovarian
UACC-257 melanoma = tested on: UACC-257 melanoma
SW-620 colon = tested on: SW-620 colon
SK-MEL-5 melanoma = tested on: SK-MEL-5 melanoma
SK-MEL-28 melanoma = tested on: SK-MEL-28 melanoma
SNB-75 CNS = tested on: SNB-75 CNS
OVCAR-4 ovarian = tested on: OVCAR-4 ovarian
KM12 colon = tested on: KM12 colon
SF-539 CNS = tested on: SF-539 CNS
RXF 393 renal = tested on: RXF 393 renal
OVCAR-3 ovarian = tested on: OVCAR-3 ovarian
UO-31 renal = tested on: UO-31 renal
NCI-H226 lung = tested on: NCI-H226 lung
UACC-62 melanoma = tested on: UACC-62 melanoma
DU-145 prostate = tested on: DU-145 prostate
SN12C renal = tested on: SN12C renal
SK-MEL-2 melanoma = tested on: SK-MEL-2 melanoma
SK-OV-3 ovarian = tested on: SK-OV-3 ovarian
HS 578T breast = tested on: HS 578T breast
K-562 leukemia = tested on: K-562 leukemia
MOLT-4 leukemia = tested on: MOLT-4 leukemia
MALME-3M melanoma = tested on: MALME-3M melanoma
NCI-H522 lung = tested on: NCI-H522 lung

NC(=O)c1nc(-c2c(F)cccc2Cl)oc1Nc1ccc(C(=O)N2CCOCC2)cc1
GI50 (SF-295 CNS): 2.95 µM | TGI (SF-295 CNS): > 45.9 µM | GI50 (CAKI-1 renal): 1.76 µM | TGI (CAKI-1 renal): 5.85 µM | GI50 (CCRF-CEM leukemia): 0.211 µM | TGI (CCRF-CEM leukemia): 0.383 µM | GI50 (TK-10 renal): 2.58 µM | TGI (TK-10 renal): 8.79 µM | GI50 (MDA-MB-468 breast): 1.5 µM | TGI (MDA-MB-468 breast): 4.23 µM | GI50 (LOX IMVI melanoma): 0.869 µM | TGI (LOX IMVI melanoma): 2.39 µM | GI50 (A549 NSCLC): 0.686 µM | TGI (A549 NSCLC): 5.44 µM | GI50 (EKVX NSCLC): 1.96 µM | TGI (EKVX NSCLC): 7.57 µM | GI50 (HCT-116 colon): 0.957 µM | TGI (HCT-116 colon): 13.8 µM | GI50 (COLO 205 colon): 1.13 µM | TGI (COLO 205 colon): 7.44 µM | GI50 (HL-60(TB) leukemia): 0.36 µM | TGI (HL-60(TB) leukemia): 1.09 µM | GI50 (MCF7 breast): 0.708 µM | TGI (MCF7 breast): 16.8 µM | GI50 (RPMI-8226 leukemia): 0.444 µM | TGI (RPMI-8226 leukemia): 4.28 µM | GI50 (PC-3 prostate): 4.22 µM | TGI (PC-3 prostate): 27.2 µM | GI50 (NCI-H23 lung): 0.6 µM | TGI (NCI-H23 lung): 4.43 µM | GI50 (T-47D breast): 0.682 µM | TGI (T-47D breast): 20.7 µM | GI50 (HCT-15 colon): 2.41 µM | TGI (HCT-15 colon): 19 µM | GI50 (BT-549 breast): 2 µM | TGI (BT-549 breast): 5.84 µM | GI50 (NCI-H322M lung): 6.5 µM | TGI (NCI-H322M lung): 23.6 µM | GI50 (SNB-19 CNS): 3.46 µM | TGI (SNB-19 CNS): 24.9 µM | GI50 (M14 melanoma): 17.3 µM | TGI (M14 melanoma): > 47.5 µM | GI50 (NCI/ADR-RES ovarian): 2.46 µM | TGI (NCI/ADR-RES ovarian): 7.79 µM | GI50 (IGROV1 ovarian): 1.4 µM | TGI (IGROV1 ovarian): 3.17 µM | GI50 (SF-268 CNS): 2.45 µM | TGI (SF-268 CNS): 11.2 µM | GI50 (OVCAR-5 ovarian): 2.47 µM | TGI (OVCAR-5 ovarian): 19.6 µM | GI50 (UACC-257 melanoma): 23.1 µM | TGI (UACC-257 melanoma): > 54.8 µM | GI50 (SW-620 colon): 0.48 µM | TGI (SW-620 colon): 3.37 µM | GI50 (SK-MEL-5 melanoma): 13.6 µM | TGI (SK-MEL-5 melanoma): 34.7 µM | GI50 (SK-MEL-28 melanoma): 14.2 µM | TGI (SK-MEL-28 melanoma): > 90.9 µM | GI50 (SNB-75 CNS): 1.78 µM | TGI (SNB-75 CNS): 4.24 µM | GI50 (OVCAR-4 ovarian): 2.09 µM | TGI (OVCAR-4 ovarian): 6.3 µM | GI50 (KM12 colon): 0.17 µM | TGI (KM12 colon): 3.89 µM | GI50 (SF-539 CNS): 1.45 µM | TGI (SF-539 CNS): 7.64 µM | GI50 (RXF 393 renal): 1.1 µM | TGI (RXF 393 renal): 3.3 µM | GI50 (OVCAR-3 ovarian): 1.6 µM | TGI (OVCAR-3 ovarian): 7.65 µM | GI50 (UO-31 renal): 0.171 µM | TGI (UO-31 renal): 0.322 µM | GI50 (NCI-H226 lung): 0.474 µM | TGI (NCI-H226 lung): 2.67 µM | GI50 (UACC-62 melanoma): 5.96 µM | TGI (UACC-62 melanoma): 20.4 µM | GI50 (DU-145 prostate): 4.44 µM | TGI (DU-145 prostate): 23.2 µM | GI50 (SN12C renal): 1.64 µM | TGI (SN12C renal): 13.6 µM | GI50 (SK-MEL-2 melanoma): 15.3 µM | TGI (SK-MEL-2 melanoma): 30.1 µM | GI50 (SK-OV-3 ovarian): 6.28 µM | TGI (SK-OV-3 ovarian): 28.6 µM | GI50 (HS 578T breast): 1.34 µM | TGI (HS 578T breast): 3.75 µM | GI50 (K-562 leukemia): 1.62 µM | TGI (K-562 leukemia): 15 µM | GI50 (MOLT-4 leukemia): 0.182 µM | TGI (MOLT-4 leukemia): 0.436 µM | GI50 (MALME-3M melanoma): 4.68 µM | TGI (MALME-3M melanoma): 12.3 µM | GI50 (NCI-H522 lung): 0.795 µM | TGI (NCI-H522 lung): 3.76 µM
